Results taken from US11739070B2, “C5A receptor modulators” (IDORSIA PHARMACEUTICALS LTD, priority 2018, dated 2023).

The molecules below were run against T1, C5AR1 (Homo sapiens, UniProt P21730) (assay: hC5a DISCO IC50 assay (PathHunter beta-arrestin, antagonist mode)). Details: CHO-K1 C5AR1 beta-arrestin cell line; antagonist vs 1-10 nM C5a agonist; geometric mean values; read-out: C5aR IC50.
T1 construct: host or cells: CHO-K1
T1 sequence (P21730 1-350): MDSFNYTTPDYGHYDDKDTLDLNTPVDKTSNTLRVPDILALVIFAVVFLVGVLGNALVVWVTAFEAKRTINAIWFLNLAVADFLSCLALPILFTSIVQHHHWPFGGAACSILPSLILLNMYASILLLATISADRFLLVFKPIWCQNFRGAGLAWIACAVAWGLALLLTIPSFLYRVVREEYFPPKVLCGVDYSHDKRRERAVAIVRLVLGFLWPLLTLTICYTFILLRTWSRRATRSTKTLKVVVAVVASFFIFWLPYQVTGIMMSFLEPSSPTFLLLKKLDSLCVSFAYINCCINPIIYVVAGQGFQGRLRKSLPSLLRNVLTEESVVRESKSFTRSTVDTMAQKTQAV
Type: cell-based
Description: II. Biological Assays In Vitro Assay hC5a DISCO IC50 Assay
5 μl Antagonist at 6-fold end concentration or DMSO control is added to assay medium and subsequently 5 μl 1-10 nM C5a agonist at 6 fold end concentration. Cells are centrifuged for 1 min at 1000 rpm and incubated for 1.5 hour in at 37° C. Plates are equilibrated at room temperature for several minutes before adding 12 μl/well Detection Reagent (PathHunter Detection Kit, DiscoverX, Cat #93-0001). Plates are centrifuged for 1 min at 1000 rpm and incubated for 45 minutes at RT before being measured on a Fluostar Optima, BMG Labtech. IC50 values are calculated from a serial dilution range of antagonist using inhouse software and given in nmol/l.
The calculated IC50 values may fluctuate depending on the daily cellular assay performance. Fluctuations of this kind are known to those skilled in the art. Average IC50 values from several measurements are given as geometric mean values.

Compound	IC50
COc1cccc2c1n(Cc1ccccc1C(F)(F)F)c(=O)n2[C@H]1CN(C(=O)OC(C)(C)C)C[C@@H]1C (relative stereo) [Example 196, (3R*,4S*)-3-[4-Methoxy-2-oxo-3-(2-trifluoromethyl-benzyl)-2,3-dihydro-benzoimidazol-1-yl]-4-methyl-pyrrolidine-1-carboxylic acid tert-butyl ester]	139 nM
COc1cccc2c1n(Cc1ccccc1C(F)(F)F)c(=O)n2C1CCN(C(=O)OC(C)(C)C)CC1 [Example 1, 4-[4-Methoxy-2-oxo-3-(2-trifluoromethyl-benzyl)-2,3-dihydro-benzoimidazol-1-yl]-piperidine-1-carboxylic acid tert-butyl ester]	621 nM
COc1cccc2c1n(Cc1ccccc1C(F)(F)F)c(=O)n2C1CCN(Cc2ccc(Cl)cc2Cl)CC1 [Example 5, 1-[1-(2,4-Dichloro-benzyl)-piperidin-4-yl]-4-methoxy-3-(2-trifluoromethyl-benzyl)-1,3-dihydro-benzoimidazol-2-one]	284 nM
COc1cccc2c1n(Cc1ccccc1C(F)(F)F)c(=O)n2C1CCN(c2c(C=O)c(C3CC3)nn2C)CC1 [Example 14, 3-Cyclopropyl-5-{4-[4-methoxy-2-oxo-3-(2-trifluoromethyl-benzyl)-2,3-dihydro-benzoimidazol-1-yl]-piperidin-1-yl}-1-methyl-1H-pyrazole-4-carbaldehyde]	216 nM
COc1cccc2c1n(Cc1ccccc1C(F)(F)F)c(=O)n2C1CCN(c2cc(C3CC3)nn2C)CC1 [Example 21, 1-[1-(5-Cyclopropyl-2-methyl-2H-pyrazol-3-yl)-piperidin-4-yl]-4-methoxy-3-(2-trifluoromethyl-benzyl)-1,3-dihydro-benzoimidazol-2-one]	3440 nM
COc1cccc2c1n(Cc1ccccc1C(F)(F)F)c(=O)n2C1CCN(c2c(Cl)c(C3CC3)nn2C)CC1 [Example 24, 1-[1-(4-Chloro-5-cyclopropyl-2-methyl-2H-pyrazol-3-yl)-piperidin-4-yl]-4-methoxy-3-(2-trifluoromethyl-benzyl)-1,3-dihydro-benzoimidazol-2-one]	330 nM
COc1cccc2c1n(Cc1ccccc1C(F)(F)F)c(=O)n2C1CCN(c2c(C)c(C3CC3)nn2C)CC1 [Example 25, 1-[1-(5-Cyclopropyl-2,4-dimethyl-2H-pyrazol-3-yl)-piperidin-4-yl]-4-methoxy-3-(2-trifluoromethyl-benzyl)-1,3-dihydro-benzoimidazol-2-one]	185 nM
COC(=O)N1CC[C@@H](n2c(=O)n(Cc3ccccc3C(F)(F)F)c3c(OC)cccc32)C1 [Example 26, (R)-3-[4-Methoxy-2-oxo-3-(2-trifluoromethyl-benzyl)-2,3-dihydro-benzoimidazol-1-yl]-pyrrolidine-1-carboxylicacid methyl ester]	459 nM
COc1cccc2c1n(Cc1ccccc1C(F)(F)F)c(=O)n2[C@@H]1CCN(C(=O)c2ccccc2)C1 [Example 27, 1-((R)-1-Benzoyl-pyrrolidin-3-yl)-4-methoxy-3-(2-trifluoromethyl-benzyl)-1,3-dihydro-benzoimidazol-2-one]	3340 nM
COc1cccc2c1n(Cc1ccccc1C(F)(F)F)c(=O)n2C1CCN(C(=O)C(C)(C)C)CC1 [Example 28, 1-[1-(2,2-Dimethyl-propionyl)-piperidin-4-yl]-4-methoxy-3-(2-trifluoromethyl-benzyl)-1,3-dihydro-benzoimidazol-2-one]	1330 nM
COC(=O)N1CCC(n2c(=O)n(Cc3ccccc3C(F)(F)F)c3c(OC)cccc32)CC1 [Example 29, 4-[4-Methoxy-2-oxo-3-(2-trifluoromethyl-benzyl)-2,3-dihydro-benzoimidazol-1-yl]-piperidine-1-carboxylic acid methyl ester]	182 nM
COc1cccc2c1n(Cc1ccccc1C(F)(F)F)c(=O)n2C1CCN(C(=O)c2ccccc2)CC1 [Example 30, 1-(1-Benzoyl-piperidin-4-yl)-4-methoxy-3-(2-trifluoromethyl-benzyl)-1,3-dihydro-benzoimidazol-2-one]	1520 nM
COc1cccc2c1n(Cc1ccccc1C(F)(F)F)c(=O)n2[C@@H]1CCN(C)C1 [Example 31, 4-Methoxy-1-((R)-1-methyl-pyrrolidin-3-yl)-3-(2-trifluoromethyl-benzyl)-1,3-dihydro-benzoimidazol-2-one]	3450 nM
COc1cccc2c1n(Cc1ccccc1C(F)(F)F)c(=O)n2[C@@H]1CCN(C(C)C)C1 [Example 32, 1-((R)-1-Isopropyl-pyrrolidin-3-yl)-4-methoxy-3-(2-trifluoromethyl-benzyl)-1,3-dihydro-benzoimidazol-2-one]	642 nM

Stronger by IC50, values ahead:

IC50	Compound
15 nM	COc1cccc2c1n(Cc1ccccc1C(F)(F)F)c(=O)n2[C@H]1CN(c2c(C)cccc2F)C[C@@H]1C (relative stereo) [Example 198, 1-[(3R*,4S*)-1-(2-Fluoro-6-methyl-phenyl)-4-methyl-pyrrolidin-3-yl]-4-methoxy-3-(2-trifluoromethyl-benzyl)-1,3-dihydro-benzoimidazol-2-one]
119 nM	COc1cccc2c1n(Cc1ccccc1C(F)(F)F)c(=O)n2[C@H]1CN(C(=O)OC(C)(C)C)C[C@H]1C (relative stereo) [Example 199, (3R*,4R*)-3-[4-Methoxy-2-oxo-3-(2-trifluoromethyl-benzyl)-2,3-dihydro-benzoimidazol-1-yl]-4-methyl-pyrrolidine-1-carboxylic acid tert-butyl ester]
19 nM	COc1cccc2c1n(Cc1ccccc1C(F)(F)F)c(=O)n2[C@H]1CN(c2c(C)cccc2F)C[C@H]1C (relative stereo) [Example 200, 1-[(3R*,4R*)-1-(2-Fluoro-6-methyl-phenyl)-4-methyl-pyrrolidin-3-yl]-4-methoxy-3-(2-trifluoromethyl-benzyl)-1,3-dihydro-benzoimidazol-2-one]
18 nM	COc1cccc2c1n(Cc1ccccc1C(F)(F)F)c(=O)n2C1CCN(c2c(C)cccc2C)CC1 [Example 2, 1-[1-(2,6-Dimethyl-phenyl)-piperidin-4-yl]-4-methoxy-3-(2-trifluoromethyl-benzyl)-1,3-dihydro-benzoimidazol-2-one]
23 nM	[2H]c1ccc(OC)c2c1n(C1CCN(c3c(C)cccc3C)CC1)c(=O)n2Cc1ccccc1C(F)(F)F [Example 3, 1-(1-(2,6-dimethylphenyl)piperidin-4-yl)-4-methoxy-3-(2-(trifluoromethyl)benzyl)-1,3-dihydro-benzoimidazol-2-one-7-d]
131 nM	COc1cccc2c1n(Cc1ccccc1C(F)(F)F)c(=O)n2C1CCN(c2ccccc2)CC1 [Example 4, 4-Methoxy-1-(1-phenyl-piperidin-4-yl)-3-(2-trifluoromethyl-benzyl)-1,3-dihydro-benzoimidazol-2-one]
66 nM	COc1cccc2c1n(Cc1ccccc1C(F)(F)F)c(=O)n2[C@@H]1CCN(C(=O)OC(C)(C)C)C1 [Example 6, (R)-3-[4-Methoxy-2-oxo-3-(2-trifluoromethyl-benzyl)-2,3-dihydro-benzoimidazol-1-yl]-pyrrolidine-1-carboxylic acid tert-butyl ester]
11 nM	COc1cccc2c1n(Cc1ccccc1C(F)(F)F)c(=O)n2[C@@H]1CCN(c2c(F)cccc2F)C1 [Example 7, 1-[(R)-1-(2,6-Difluoro-phenyl)-pyrrolidin-3-yl]-4-methoxy-3-(2-trifluoromethyl-benzyl)-1,3-dihydro-benzoimidazol-2-one]
32 nM	COc1cccc2c1n(Cc1ccccc1C(F)(F)F)c(=O)n2C1CCN(c2c(F)cccc2F)CC1 [Example 9, 1-[1-(2,6-Difluoro-phenyl)-piperidin-4-yl]-4-methoxy-3-(2-trifluoromethyl-benzyl)-1,3-dihydro-benzoimidazol-2-one]
19 nM	COc1ccccc1N1CC[C@@H](n2c(=O)n(Cc3ccccc3C(F)(F)F)c3c(OC)cccc32)C1 [Example 16, 4-Methoxy-1-[(R)-1-(2-methoxy-phenyl)-pyrrolidin-3-yl]-3-(2-trifluoromethyl-benzyl)-1,3-dihydro-benzoimidazol-2-one]
36 nM	COc1cccc2c1n(Cc1ccccc1OC(F)(F)F)c(=O)n2[C@@H]1CCN(C(=O)OC(C)(C)C)C1 [Example 20, (R)-3-[4-Methoxy-2-oxo-3-(2-trifluoromethoxy-benzyl)-2,3-dihydro-benzoimidazol-1-yl]-pyrrolidine-1-carboxylic acid tert-butyl ester]
30 nM	COc1cccc2c1n(Cc1ccccc1OC(F)(F)F)c(=O)n2[C@@H]1CCN(c2c(C)cccc2C)C1 [Example 22, 1-[(R)-1-(2,6-Dimethyl-phenyl)-pyrrolidin-3-yl]-4-methoxy-3-(2-trifluoromethoxy-benzyl)-1,3-dihydro-benzoimidazol-2-one]
8 nM	COc1cccc2c1n(Cc1ccccc1OC(F)(F)F)c(=O)n2[C@@H]1CCN(c2c(F)cccc2F)C1 [Example 23, 1-[(R)-1-(2,6-Difluoro-phenyl)-pyrrolidin-3-yl]-4-methoxy-3-(2-trifluoromethoxy-benzyl)-1,3-dihydro-benzoimidazol-2-one]
